Assay results: ChEMBL document CHEMBL2429807, “Synthesis and cytotoxicity of novel 4-(4-(substituted)-1H-1,2,3-triazol-1-yl)-N-phenethylbenzenesulfonamides” (Med Chem Res, 2013)

What was measured:
Assay type in all cases: functional, cell-based
[1] = Cytotoxicity against human HuCCa1 cells after 48 hrs by MTT assay; details: HuCC-A1, 48 h
[2] = tested on: HepG2; experiment: Cytotoxicity against human HepG2 cells after 48 hrs by MTT assay; details: HepG2, 48 h
[3] = tested on: MOLT-3; experiment: Cytotoxicity against human MOLT3 cells after 48 hrs by XTT assay; details: MOLT-3, 48 h
[4] = tested on: A549; experiment: Cytotoxicity against human A549 cells after 48 hrs by MTT assay; details: A549, 48 h

Compound | IC50 [1] | IC50 [2] | IC50 [3] | IC50 [4]
Nc1ccc(S(=O)(=O)NCCc2ccccc2)cc1 | > 50 µg/mL | > 50 µg/mL | 167 µM | > 50 µg/mL
O=c1ccc2ccc(OCc3cn(-c4ccc(S(=O)(=O)NCCc5ccccc5)cc4)nn3)cc2o1 | 16.1 µM | 12.4 µM | 89 µM | 19.6 µM
O=c1cc(OCc2cn(-c3ccc(S(=O)(=O)NCCc4ccccc4)cc3)nn2)c2ccccc2o1 | > 50 µg/mL | > 50 µg/mL | 10.7 µM | > 50 µg/mL
COc1ccc(CCNS(=O)(=O)c2ccc(-n3cc(-c4ccccc4)nn3)cc2)cc1OC | > 50 µg/mL | 23.9 µM | 61 µM | 18.2 µM
COc1ccc(CCNS(=O)(=O)c2ccc(-n3cc(COc4ccc(C=O)cc4)nn3)cc2)cc1OC | > 50 µg/mL | > 50 µg/mL | 17.4 µM | 28 µM
COc1ccc(CCNS(=O)(=O)c2ccc(-n3cc(COc4ccc([N+](=O)[O-])cc4)nn3)cc2)cc1OC | > 50 µg/mL | > 50 µg/mL | 10.1 µM | > 50 µg/mL
COc1ccc(CCNS(=O)(=O)c2ccc(N)cc2)cc1OC | > 50 µg/mL | > 50 µg/mL | 104 µM | > 50 µg/mL
[N-]=[N+]=Nc1ccc(S(=O)(=O)NCCc2ccccc2)cc1 | > 50 µg/mL | 92.6 µM | 60.1 µM | 139 µM
COc1ccc(CCNS(=O)(=O)c2ccc(N=[N+]=[N-])cc2)cc1OC | > 50 µg/mL | 122 µM | 48.5 µM | > 50 µg/mL
O=S(=O)(NCCc1ccccc1)c1ccc(-n2cc(-c3ccccc3)nn2)cc1 | 8.65 µM | 9.07 µM | > 50 µg/mL | 34.5 µM
O=S(=O)(NCCc1ccccc1)c1ccc(-n2cc(COc3ccccc3)nn2)cc1 | > 50 µg/mL | 57.5 µM | > 50 µg/mL | > 50 µg/mL
O=S(=O)(NCCc1ccccc1)c1ccc(-n2cc(COc3cccc4ccccc34)nn2)cc1 | > 50 µg/mL | > 50 µg/mL | > 50 µg/mL | > 50 µg/mL
O=S(=O)(NCCc1ccccc1)c1ccc(-n2cc(COc3ccc4ccccc4c3)nn2)cc1 | > 50 µg/mL | 28.2 µM | 74.2 µM | > 50 µg/mL
Cc1ccc(OCc2cn(-c3ccc(S(=O)(=O)NCCc4ccccc4)cc3)nn2)cc1 | > 50 µg/mL | 81.8 µM | > 50 µg/mL | > 50 µg/mL
O=Cc1ccc(OCc2cn(-c3ccc(S(=O)(=O)NCCc4ccccc4)cc3)nn2)cc1 | 87.9 µM | 101 µM | 32 µM | > 50 µg/mL
O=[N+]([O-])c1ccc(OCc2cn(-c3ccc(S(=O)(=O)NCCc4ccccc4)cc3)nn2)cc1 | > 50 µg/mL | > 50 µg/mL | 61.4 µM | > 50 µg/mL
Cc1ccccc1OCc1cn(-c2ccc(S(=O)(=O)NCCc3ccccc3)cc2)nn1 | > 50 µg/mL | 41.6 µM | 34.2 µM | > 50 µg/mL
COC(=O)c1ccccc1OCc1cn(-c2ccc(S(=O)(=O)NCCc3ccccc3)cc2)nn1 | > 50 µg/mL | 49.4 µM | 8.81 µM | > 50 µg/mL
COc1cc(C=O)ccc1OCc1cn(-c2ccc(S(=O)(=O)NCCc3ccccc3)cc2)nn1 | > 50 µg/mL | 57.5 µM | 9.22 µM | 79.2 µM
COc1ccc(C=O)cc1OCc1cn(-c2ccc(S(=O)(=O)NCCc3ccccc3)cc2)nn1 | > 50 µg/mL | 34.5 µM | 10.3 µM | 39 µM
COc1cccc2c1C(=O)c1c(O)c3c(c(O)c1C2=O)C[C@@](O)(C(=O)CO)C[C@@H]3O[C@H]1C[C@H](N)[C@H](O)[C@H](C)O1 [DOXORUBICIN] | 0.83 µM | 0.79 µM |  | 0.44 µM
COc1cc([C@@H]2c3cc4c(cc3[C@@H](O[C@@H]3O[C@@H]5CO[C@@H](C)O[C@H]5[C@H](O)[C@H]3O)[C@H]3COC(=O)[C@H]23)OCO4)cc(OC)c1O [ETOPOSIDE] |  | 30.2 µM | 0.051 µM | 
